Results reported in patent US7456199B2, “Biphenyl compounds useful as muscarinic receptor antagonists” (Theravance, Inc., priority 2004, dated 2008).

Tested on: MCh depressor responses
Assay: Methacholine-induced depressor responses in conscious guinea pigs
Format: in vivo, guinea pig
Conditions: inhalation
From the text: Healthy, adult, male Sprague-Dawley guinea pigs (Harlan, Indianapolis, Ind.), weighing between 200 and 300 g were used in these studies. Under isoflurane anesthesia (to effect), animals were instrumented with common carotid artery and jugular vein catheters (PE-50 tubing). The catheters were exteriorized utilizing a subcutaneous tunnel to the subscapular area. All surgical incisions were sutured with 4-0 Ethicon Silk and the catheters locked with heparin (1000 units/mL). Each animal was administered saline (3 mL, SC) at the end of surgery as well as buprenorphine (0.05 mg/kg, IM). Animals were allowed to recover on a heating pad before being returned to their holding rooms.
Approximately 18 to 20 hours following surgery, the animals were weighed and the carotid artery catheter on each animal was connected to a transducer for recording arterial pressure. Arterial pressure and heart rate was recorded using a Biopac MP-100 Acquisition System. Animals were allowed to acclimate and stabilize for a period of 20 minutes.
Each animal was challenged with MCh (0.3 mg/kg, IV) administered through the jugular venous line and the cardiovascular response was monitored for 10 minutes. […] At 1.5 and 24 h post-dosing, the animals were re-challenged with MCh (0.3 mg/kg, IV) and the hemodynamic response was determined. […]

`O=C(CCN1CCC(OC(=O)Nc2ccccc2-c2ccccc2)CC1)Nc1ccc(CNCc2ccc(O)cc2)cc1` [Example 1, Biphenyl-2-ylcarbamic Acid 1-(2-{4-[(4-Hydroxybenzylamino)methyl]phenylcarbamoyl}ethyl)piperidin-4-yl Ester] was tested, and the “apparent lung-selectivity index (ratio of anti-depressor ID50 to bronchoprotective ID50)” value was “greater than 5”.
